Reference: publication PMC11882969 (Nature Communications, 2025)
Where “and” joins values, the source holds several entries; their conditions need not be identical. Identical values can stand only once.

Columns and labels:
[1] = target: T1, hCB1 (Homo sapiens, UniProt P21554); assay: DiscoverX PathHunter β-arrestin-2 recruitment; format: cell-based; conditions: individual replicates;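 also: CHO-K1 cells expressing hCB1, agonist mode, compound exposure with 1% vehicle, chemiluminescence read-out of the β-arrestin-2 recruitment signal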
T1 sequence (P21554 whole entry): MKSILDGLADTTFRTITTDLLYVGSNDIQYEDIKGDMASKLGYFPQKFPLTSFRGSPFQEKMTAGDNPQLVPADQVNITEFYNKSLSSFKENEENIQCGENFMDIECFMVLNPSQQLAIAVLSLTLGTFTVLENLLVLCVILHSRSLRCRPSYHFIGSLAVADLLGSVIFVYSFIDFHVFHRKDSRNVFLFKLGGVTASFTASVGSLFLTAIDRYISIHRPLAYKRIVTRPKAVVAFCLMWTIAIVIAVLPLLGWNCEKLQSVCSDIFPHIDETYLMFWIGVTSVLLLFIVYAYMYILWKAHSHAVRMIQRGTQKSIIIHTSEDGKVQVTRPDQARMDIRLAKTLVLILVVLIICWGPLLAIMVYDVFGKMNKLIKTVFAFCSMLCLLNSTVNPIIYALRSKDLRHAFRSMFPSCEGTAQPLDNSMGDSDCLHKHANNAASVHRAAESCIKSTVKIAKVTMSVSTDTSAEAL

[2] = target: T1, hCB1; assay: Tango β-arrestin-2 recruitment, HTLA cells, CB1R; format: cell-based; parameters: expressed in transfected cells; host or cells: HTLA cells (gift of R. Axel), transient transfection; conditions: Log[drug]
[3] = target: T2, hCB2 (Homo sapiens, UniProt P34972); assay: Cerep HTRF cAMP inhibition assay, hCB2 CHO-K1; format: cell-based; parameters: host or cells: HEK293SL cells, transient PEI transfection; conditions: for functional response, concentration-response point (FigS7d): replicate columns;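 as to all read-outs here: compounds incubated 30 min at 37 °C with hCB2 CHO-K1 cells, cAMP detected by HTRF, HBSS as basal and reference agonist as stimulated control, run in triplicate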
T2 sequence (P34972 whole entry): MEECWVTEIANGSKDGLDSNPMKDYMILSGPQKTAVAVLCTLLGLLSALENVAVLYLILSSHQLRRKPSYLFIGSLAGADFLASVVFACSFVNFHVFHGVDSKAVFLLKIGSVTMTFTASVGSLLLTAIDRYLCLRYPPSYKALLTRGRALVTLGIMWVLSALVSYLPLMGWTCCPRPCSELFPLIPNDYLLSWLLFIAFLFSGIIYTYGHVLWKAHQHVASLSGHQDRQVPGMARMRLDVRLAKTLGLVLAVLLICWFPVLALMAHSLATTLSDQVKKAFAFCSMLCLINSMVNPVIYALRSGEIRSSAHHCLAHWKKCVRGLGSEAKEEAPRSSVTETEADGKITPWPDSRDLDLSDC
Description: (§1) The hCB1/2 CHO-K1 cells (ATCC: CCL-61) are suspended in HBSS buffer (Invitrogen) complemented with 20 mM HEPES (pH 7.4), then distributed in microplates at a density of 5.103 cells/well in the presence of either of the following: HBSS (basal control), the reference agonist (stimulated control) or the test compounds. […] Following 30 min incubation at 37 °C, the cells are lysed, and the fluorescence acceptor (D2-labeled cAMP) and fluorescence donor (anti-cAMP antibody labeled with europium cryptate) are added. […] Each measurement was done in triplicate.

[4] = target: T2, hCB2; assay: Tango β-arrestin-2 recruitment, HTLA cells, CB2R; format: cell-based; parameters: expressed in transfected cells; host or cells: HEK293 cells stably expressing human CB2R (Laboratory of Ken Mackie); conditions: hCB2
[5] = target: T2, hCB2; assay: TRUPATH BRET2 GoA dissociation, HEK293T; format: cell-based; parameters: expressed in transfected cells; host or cells: HEK293T cells (ATCC: CRL-3216), transient co-transfection; conditions: Log[drug], replicate columns
[6] = target: CB1 (rCB1) (Rattus norvegicus, UniProt P20272); assay: Radioligand competition binding, [3H]-CP-55,940, rat brain membranes; conditions: rCB1
Chain of CB1 (rCB1) (P20272 whole entry): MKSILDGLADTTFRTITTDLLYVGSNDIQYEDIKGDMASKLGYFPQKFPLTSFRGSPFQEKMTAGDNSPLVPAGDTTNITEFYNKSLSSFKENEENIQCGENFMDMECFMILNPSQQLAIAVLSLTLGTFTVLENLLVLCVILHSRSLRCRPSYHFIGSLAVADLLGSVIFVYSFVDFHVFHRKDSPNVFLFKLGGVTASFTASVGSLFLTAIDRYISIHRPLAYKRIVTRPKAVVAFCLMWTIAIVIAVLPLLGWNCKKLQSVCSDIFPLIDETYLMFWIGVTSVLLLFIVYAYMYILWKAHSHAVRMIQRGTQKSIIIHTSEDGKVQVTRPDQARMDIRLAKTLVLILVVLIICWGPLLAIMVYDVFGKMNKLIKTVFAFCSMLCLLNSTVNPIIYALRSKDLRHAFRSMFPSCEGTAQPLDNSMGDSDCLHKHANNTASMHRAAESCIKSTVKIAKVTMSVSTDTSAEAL

[7] = target: T1, hCB1; assay: Cerep HTRF cAMP inhibition assay, hCB1 CHO-K1; format: cell-based; parameters: host or cells: HEK293SL cells, transient PEI transfection
Description: as §1

## Cc1cc(C(=O)N2CC3(CCC3)C2C2CCCO2)nn1-c1cccc(C(F)(F)F)c1 (centres unmarked) [‘3737]
[1]; log[M] = -5
  response at log[M] -5 (FigS4f): 2.937 and 3.369
[1]; log[M] = -5.47712
  response at log[M] -5.47712 (FigS4f): 2.132 and 1.959
[1]; log[M] = -5.95424
  response at log[M] -5.95424 (FigS4f): 0.8089 and 2.3908
[1]; log[M] = -6.43136
  response at log[M] -6.43136 (FigS4f): 0.2049 and 1.2691
[1]; log[M] = -6.90849
  response at log[M] -6.90849 (FigS4f): -0.5141 and 0.32
[1]; log[M] = -7.38561
  response at log[M] -7.38561 (FigS4f): 0.003595 and 0.06112
[1]; log[M] = -7.86273
  response at log[M] -7.86273 (FigS4f): 0.32 and 0.4063
[1]; log[M] = -8.33985
  response at log[M] -8.33985 (FigS4f): 0.003595 and -0.3703
[1]; log[M] = -8.81697
  response at log[M] -8.81697 (FigS4f): 0.2049 and 0.8664
[1]; log[M] = -9.29409
  response at log[M] -9.29409 (FigS4f): -0.4278 and -0.5141
[2]; M = -4.52
  response, replicate values of concentration-response curve (FigS7f): 16.1787 and -30.1888 and -21.8736 and -37.3037 and -30.7086 and -43.6201 and -17.4903 and -7.002 and -28.2206 and 69.1202 and 86.7632
[2]; M = -5
  response, replicate values of concentration-response curve (FigS7f): 10.5 and 4.251 and -11.4922 and -24.0074 and 39.1171 and 4.908 and -25.6442 and 7.194 and 4.112 and 35.3652 and 54.7761
[2]; M = -5, individual replicates
  response at Log[drug], M -5 (FigS4e): 1.604 and 1.6378 and -0.1263 and 3.554 and -1.645 and -3.332 and -3.586 and -3.254 and -1.133 and -2.551 and -0.4401 and -2.2823
[2]; M = -5.52
  response, replicate values of concentration-response curve (FigS7f): -34.1436 and -19.4525 and -21.2651 and -33.8536 and -16.1649 and -20.5572 and -2.476 and -19.5818 and -27.1597 and -5.334 and 9.411
[2]; M = -5.52, individual replicates
  response at Log[drug], M -5.52 (FigS4e): 3.364 and 3.2967 and 3.89 and 5.267 and -2.445 and -3.368 and -3.286 and -3.18 and -0.5298 and -0.4645 and -2.331 and -1.157
[2]; M = -6
  response, replicate values of concentration-response curve (FigS7f): 47.6523 and 12.1859 and 4.34 and -19.6283 and -3.001 and -0.2146 and 2.4245 and 18.2472 and 13.6095 and 40.7237 and 38.7735
[2]; M = -6, individual replicates
  response at Log[drug], M -6 (FigS4e): 5.688 and 6.311 and 5.608 and 6.012 and -1.436 and -3.213 and -2.355 and -0.1315 and -0.6439 and -0.4319 and -1.117 and -0.5542
[2]; M = -6.52
  response, replicate values of concentration-response curve (FigS7f): 26.7755 and 17.066 and 0.4863 and -24.0472 and -30.3238 and -3.24 and 14.0743 and -8.114 and 32.4836 and -15.0304 and -19.0948
[2]; M = -6.52, individual replicates
  response at Log[drug], M -6.52 (FigS4e): 5.756 and 5.2335 and 6.796 and 5.427 and -1.042 and -1.74 and -1.178 and 0.9023 and 2.299 and 1.818 and -0.3423 and 0.155
[2]; M = -7
  response, replicate values of concentration-response curve (FigS7f): 34.9133 and -3.95 and -16.1188 and -35.3 and 25.4625 and -10.8968 and -21.6834 and 6.2943 and 0.9695 and -12.3146 and 7.534
[2]; M = -7, individual replicates
  response at Log[drug], M -7 (FigS4e): 8.884 and 5.924 and 8.758 and 7.292 and -0.04536 and -0.9069 and -0.4556 and -0.1931 and 0.8804 and 2.804 and 1.011 and 0.1957
[2]; M = -7.52
  response, replicate values of concentration-response curve (FigS7f): -5.053 and -15.3203 and -3.0249 and -6.279 and -50.5337 and -10.2997 and -15.5807 and -8.983 and -20.2588 and 4.854 and 34.2352
[2]; M = -7.52, individual replicates
  response at Log[drug], M -7.52 (FigS4e): 9.415 and 8.198 and 9.343 and 6.627 and -1.362 and -1.444 and -1.617 and 0.25 and 3.66 and 1.117 and 0.375 and 3.994
[2]; M = -8, individual replicates
  response at Log[drug], M -8 (FigS4e): 8.737 and 7.057 and 9.276 and 8.661 and -0.8249 and 2.133 and -0.7879 and -0.8084 and 1.019 and 1.329 and 1.361 and 1.467
[2]; M = -8.52, individual replicates
  response at Log[drug], M -8.52 (FigS4e): 12.5705 and 14.1572 and 15.386 and 12.0363 and 0.2264 and -0.5023 and 0.2681 and 0.2421 and 3.757 and 10.0248 and 2.888 and 3.985
[2]; M = -9
  response, replicate values of concentration-response curve (FigS7f): 8.713
[2]; M = -9, individual replicates
  response at Log[drug], M -9 (FigS4e): 14.7823 and 12.9338 and 10.7167 and 15.0494 and -0.7053 and 1.382 and -0.9032 and 2.064 and 3.902 and 4.367 and 2.588 and 2.216
[2]; M = -9.52
  response, replicate values of concentration-response curve (FigS7f): -15.5865 and 2.109 and -19.0089 and -14.201 and 8.65 and -30.6423 and 15.2767 and -7.75 and 4.87 and -25.5104 and 1.592
[2]; M = -9.52, individual replicates
  response at Log[drug], M -9.52 (FigS4e): 13.1261 and 12.6453 and 12.7896 and 11.1868 and 3.428 and 1.32 and 2.251 and 2.397 and 2.423 and 1.937 and 2.288 and 2.144
[2]; M = -10
  response, replicate values of concentration-response curve (FigS7f): -11.9485 and -4.635 and -5.484 and 10.0562 and 9.379 and -4.05 and 21.9756 and 8.952 and 10.1035 and -36.3186 and 8.518
[2]; M = -10, individual replicates
  response at Log[drug], M -10 (FigS4e): 11.8653 and 11.8119 and 13.3986 and 14.0664 and 1.366 and 1.523 and 1.018 and -1.502 and 5.629 and 3.467 and 5.091 and 7.656
[2]; M = -10.52, individual replicates
  response at Log[drug], M -10.52 (FigS4e): 14.5419 and 16.8873 and 18.068 and 18.8961 and 0.7314 and -0.5544 and 7.931 and 2.309 and 2.226 and 3.798 and 2.154 and 1.523
[2]; M = -11, individual replicates
  response at Log[drug], M -11 (FigS4e): 12.4743 and 12.4476 and 8.323 and 8.772 and 2.428 and 1.528 and 2.267 and 2.496 and 5.774 and 4.76 and 2.712 and 3.85
[2]; M = -11.52, individual replicates
  response at Log[drug], M -11.52 (FigS4e): 6.5336 and 8.19 and 7.298 and 6.6351 and 3.735 and 0.95 and 2.715 and 0.09109 and 2.743 and 1.926 and 0.799 and -0.6593
[2]; M = -12, individual replicates
  response at Log[drug], M -12 (FigS4e): -0.6945 and 1.426 and -1.629 and 0.8975 and 0.8147 and 0.1796 and -0.8095 and -0.1848 and 0.03361 and 0.3025 and -0.05947 and -0.2767
[3]; CHO-K1, hCB2
  Emax: 45%
[3]; Concentration [M] 1e-12
  functional response, concentration-response point (FigS7d): -30 and 18.5 and 4.6
[3]; Concentration [M] 1e-11
  functional response, concentration-response point (FigS7d): 15.9 and 16.3 and 22.7
[3]; Concentration [M] 1e-10
  functional response, concentration-response point (FigS7d): 3.3 and 8.5 and 15.6
[3]; Concentration [M] 1e-9
  functional response, concentration-response point (FigS7d): 40.4 and -11.1 and 23.4
[3]; Concentration [M] 1e-8
  functional response, concentration-response point (FigS7d): 41.2 and 37.3 and 34.7
[3]; Concentration [M] 1e-7
  functional response, concentration-response point (FigS7d): 47.6 and 60.7 and 69.2
[3]; Concentration [M] 1e-6
  functional response, concentration-response point (FigS7d): 52.3 and 67.9 and 43.7
[3]; Concentration [M] 1e-5
  functional response, concentration-response point (FigS7d): 46.2 and 40.4 and 47.6
[3]; hCB2
  Cerep cAMP pEC50: 8.4 [7.7 – 12.5]
  EC50: 0.0043 µM
[4]; HTLA, read-out: Tango ß-arrestin recruitment Emax
  Emax: 9%
[4]
  Tango ß-arrestin recruitment pEC50: 5.8 [5.7 – 5.9]
[4]; read-out: Tango ß-arrestin recruitment EC50
  EC50: 1.5 µM
[5]; M = -5
  functional response, concentration-response point (FigS7e, normalized): 7.15 and 0.08499 and 7.219 and 7.788 and 7.891 and 6.738 and 8.045 and 7.095 and 12.8638 and 12.2484 and 11.5588 and 11.0027
[5]; M = -5.52
  functional response, concentration-response point (FigS7e, normalized): 5.302 and 6.612 and 7.12 and 7.029 and 6.875 and 5.885 and 5.894 and 6.474 and 7.41 and 9.531 and 8.971 and 8.263
[5]; M = -6
  functional response, concentration-response point (FigS7e, normalized): 1.28 and 2.3503 and 2.331 and 3.337 and 2.385 and 1.616 and 1.676 and 1.052 and 3.161 and 3.087 and 4.085 and 2.086
[5]; M = -6.52
  functional response, concentration-response point (FigS7e, normalized): 0.8173 and 0.5745 and 0.009098 and 0.9653 and 0.9374 and 0.7056 and 0.8258 and 0.7943 and 1.033 and 1.163 and 0.8851 and 1.056
[5]; M = -7
  functional response, concentration-response point (FigS7e, normalized): 0.2747 and 0.06981 and 0.08878 and 0.8059 and -0.06126 and 0.2392 and 0.2936 and 0.4538 and 0.7999 and 0.4069 and 0.5552 and 0.6998
[5]; M = -7.52
  functional response, concentration-response point (FigS7e, normalized): 0.1912 and 0.08499 and -0.09335 and 0.658 and 0.6598 and 0.9202 and 0.07323 and 0.6226 and 0.2957 and 0.8814 and 0.5663 and 0.5329
[5]; M = -8
  functional response, concentration-response point (FigS7e, normalized): 0.324 and -0.4159 and -0.002285 and 0.1419 and 0.1305 and 0.7285 and 0.8 and 0.368 and 0.355 and 0.3476 and 0.5886 and 0.8221
[5]; M = -8.52
  functional response, concentration-response point (FigS7e, normalized): -0.4237 and 0.0337 and -0.52 and -0.4863 and 0.2451 and -0.1507 and 1.084 and 0.6009 and 0.6985 and 0.3222 and -0.007056 and 0.3034
[5]; M = -12
  functional response, concentration-response point (FigS7e, normalized): 0.3611 and 0.2552 and -0.6451 and 0.02889
[6]
  pKi [95% CI]: 6.76 [6.5 – 7.03]
[7]; CHO-K1
  Emax: 99%
[7]; hCB1
  Cerep cAMP pEC50: 6.5 [6.0 – 6.8]
  EC50: 0.326 µM
